Data taken from patent publication US12343331B2, “Methods and agents that stimulate mitochondrial turnover for treating disease” (Capacity Bio, Inc., priority 2021, dated 2025).
Non-standard residues stand in square brackets, D forms with d. Residues, ends and D or L forms follow the SMILES beside them. Nle = CCCC[C@H](N)C(=O)O

What follows are molecules tested on INS1 cells (assay: Mitochondrial content / cellular mitochondrial mass by imaging). Settings: INS1 cell line; 8 hours, 24 hours, and 72 hours; three concentrations; FIG. 9; normalized to DMSO.
Assay type: cell-based
Procedure: Cells were cultured on coverslips inside a Petri dish filled with the appropriate culture medium or grown directly into a four-chamber glass bottom dish and cells were subsequently imaged on the LSM880. At least 30 cells per condition per experiment were collected, at least three separate experiments were performed for imaging clonal cells. Image analysis was performed in the CellProfiler™ software (cellprofiler.org) to measure mitophagic events. Individual mitochondrial fluorescence intensity and area were measured in CellProfiler™ and imported into Microsoft Excel®. Mitochondria smaller than 2 pixels in area were not included in final analyses. Images were subjected to top hat filtering followed by global threshold Otsu method to segment mitochondria. To assess amount of mitochondrial content, green fluorescence intensity of objects identified as mitochondrial structures were quantitated. Data has been normalized to the control treatment, dimethyl sulfoxide (DMSO).

Structure (SMILES) | cellular mitochondrial mass (mitochondrial content)
CCCCOC(=O)NS(=O)(=O)c1ccc(OC(F)(F)F)cc1-c1ccc(Cn2ccnc2)cn1 [Compound 7] | stable
CCCC[C@H](NC(=O)[C@H](CCCNC(=N)N)NC(=O)[C@@H](N)CC(=O)O)C(=O)N[C@@H](Cc1ccc(O)cc1)C(=O)N[C@H](C(=O)N[C@@H](Cc1c[nH]cn1)C(=O)N1CCC[C@H]1C(=O)O)[C@@H](C)CC [Nle^3-A(1-7), Asp-Arg-Nle-Tyr-Ile-His-Pro] (H-DR[Nle]YIHP-OH) | stable
CC[C@H](C)[C@H](NC(=O)[C@H](Cc1ccc(O)cc1)NC(=O)[C@@H](NC(=O)[C@H](CCCNC(=N)N)NC(=O)[C@@H](N)CC(=O)O)C(C)C)C(=O)N[C@@H](Cc1c[nH]cn1)C(=O)N1CCC[C@H]1C(=O)O [angiotensin(1-7), H-Asp-Arg-Val-Tyr-Ile-His-Pro-OH] | stable
